In the assay the test system is BDF1 mice, P388 leukemia ip, median survival T/C. The experiment in a line: NCI In Vivo Anticancer Drug Screen. Data for tumor model P388 Leukemia (intraperitoneal) in B6D2F1 (BDF1) mice. The settings on record: endpoint: median survival time, higher = longer survival. A digest of the protocol:
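Compound-treated tumour-bearing mice were compared with vehicle-treated controls. Survival was recorded, and the value is the treated-group measurement divided by the control-group measurement (T/C).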

Where [1] appears, read: dose: 100.0 mg/kg/injection, schedule: Q01DX009 (ip), vehicle: saline.
Where [2] appears, read: dose: 100.0 mg/kg/injection, schedule: Q04DX003 (ip), vehicle: saline.
The mark [3] stands for this setting: dose: 50.0 mg/kg/injection, schedule: Q01DX009 (ip), vehicle: saline with Tween-80.
Setting [4] is: dose: 100.0 mg/kg/injection, schedule: Q01DX009 (ip), vehicle: saline with Tween-80.
Where [5] appears, read: dose: 200.0 mg/kg/injection, schedule: Q01DX009 (ip), vehicle: saline with Tween-80.
[6] abbreviates: dose: 100.0 mg/kg/injection, schedule: Q01DX001 (ip), vehicle: Klucel (hydroxypropylcellulose) (HPC).
The mark [7] stands for this setting: dose: 200.0 mg/kg/injection, schedule: Q01DX001 (ip), vehicle: Klucel (hydroxypropylcellulose) (HPC).
The mark [8] stands for this setting: dose: 400.0 mg/kg/injection, schedule: Q01DX001 (ip), vehicle: Klucel (hydroxypropylcellulose) (HPC).
Where [9] appears, read: dose: 100.0 mg/kg/injection, schedule: Q04DX003 (ip), vehicle: saline with Tween-80.
The mark [10] stands for this setting: dose: 200.0 mg/kg/injection, schedule: Q04DX003 (ip), vehicle: saline with Tween-80.
Setting [11] is: dose: 25.0 mg/kg/injection, schedule: Q01DX009 (ip), vehicle: saline.
Where [12] appears, read: dose: 50.0 mg/kg/injection, schedule: Q01DX009 (ip), vehicle: saline.
[13] abbreviates: dose: 100.0 mg/kg/injection, schedule: Q04DX003 (ip), vehicle: Klucel (hydroxypropylcellulose) (HPC).
Where [14] appears, read: dose: 200.0 mg/kg/injection, schedule: Q04DX003 (ip), vehicle: Klucel (hydroxypropylcellulose) (HPC).
The mark [15] stands for this setting: dose: 400.0 mg/kg/injection, schedule: Q04DX003 (ip), vehicle: Klucel (hydroxypropylcellulose) (HPC).

The values below come from PubChem BioAssay AID328 (DTP/NCI, 2004).

SMILES strings stand for the structures. Several values for one entry are separate records, joined by “and”; a condition that tells them apart may be missing. Equal entries are not always repeated. Toxic doses and inconclusive results are not listed.

In the case of `CCC12C=CCN3CCC4(c5cc(C(CN6CCCCC6)c6cn(C)c7ccccc67)c(OC)cc5N(C)C4C(O)(C(=O)OC)C1OC(C)=O)C32` (stereo not given), the T/C (dose: 4.0 mg/kg/injection, schedule: Q01DX009 (ip), vehicle: saline) was 104 % of control; the T/C (dose: 8.0 mg/kg/injection, schedule: Q01DX009 (ip), vehicle: saline) is 98 % of control; the T/C (dose: 16.0 mg/kg/injection, schedule: Q01DX009 (ip), vehicle: saline) was 98 % of control; the T/C (dose: 32.0 mg/kg/injection, schedule: Q01DX009 (ip), vehicle: saline) is 93 % of control and 116 % of control.
As to `C=C1C[C@H]2[C@@H]3C=C(C)C4=CC(=O)CC[C@]4(C)[C@H]3CC[C@]2(C)[C@@]1(OC(C)=O)C(C)=O`, the T/C runs as follows: (dose: 62.5 mg/kg/injection, schedule: Q01DX010 (sc), vehicle: steriod suspending solution) 105 % of control; (dose: 125.0 mg/kg/injection, schedule: Q01DX010 (sc), vehicle: steriod suspending solution) 110 % of control; (dose: 250.0 mg/kg/injection, schedule: Q01DX010 (sc), vehicle: steriod suspending solution) 100 % of control; (dose: 500.0 mg/kg/injection, schedule: Q01DX010 (sc), vehicle: steriod suspending solution) 110 % of control.
For the compound `CC(C)(C)c1cc(CO)c(Sc2c(CO)cc(C(C)(C)C)cc2CO)c(CO)c1`, for the setting “dose: 400.0 mg/kg/injection, schedule: Q01DX001 (ip), vehicle: saline with Tween-80”, the T/C was 90 % of control.
For `O=N[O-].O=N[O-].[NH-]CC[NH-].[Pt+2]`, the T/C (dose: 25.0 mg/kg/injection, schedule: Q04DX003 (ip), vehicle: saline) was 95 % of control; the T/C (dose: 50.0 mg/kg/injection, schedule: Q04DX003 (ip), vehicle: saline) is 108 % of control; the T/C under setting [1] was 90 % of control; the T/C under setting [2] was 95 % of control.
For the compound `NC(N)=N/N=C/C=N/N=C(N)N`, the T/C under setting [2] was 100 % of control.
For `O=C(/C=C/c1ccc(OCc2ccccc2)cc1)c1ccc(Cl)c(Cl)c1Cl`, the T/C is, setting by setting: under setting [3], 98 % of control; under setting [4], 90 % of control; under setting [5], 89 % of control.
Consider `O=C(c1ccccc1)c1ccccc1`, for which the T/C was 100 % of control under setting [6], 100 % of control under setting [7] and 116 % of control under setting [8].
As for `CCCCN(CCCC)CCNc1ccc(Cl)c2oc3cc(C)ccc3c(=O)c12`, the T/C is 100 % of control under setting [3]; 104 % of control under setting [4]; 100 % of control under setting [9]; 104 % of control under setting [5]; 100 % of control under setting [10].
For `Cc1noc(N)c1[N+](=O)[O-]`, the T/C is 95 % of control under setting [11], 109 % of control under setting [12] and 109 % of control under setting [1].
In the case of `Nc1ccn(CC(=O)c2ccc(Cl)s2)c(=O)n1`, the T/C is 100 % of control (dose: 50.0 mg/kg/injection, schedule: Q01DX009 (ip), vehicle: water); 108 % of control (dose: 100.0 mg/kg/injection, schedule: Q01DX009 (ip), vehicle: water); 100 % of control (dose: 200.0 mg/kg/injection, schedule: Q01DX009 (ip), vehicle: water).
As to `CCC(C)SC1=NC=NC2=NC=NC21` (stereo not given), the T/C is 100 % of control under setting [3], 96 % of control under setting [4], 91 % of control under setting [9] and 100 % of control under setting [10].
Regarding `CC12CCC3C4CCC(=O)C(O)=C4CCC3C1CCC2OC(=O)CCC1CCCC1` (stereo not given), the T/C (dose: 100.0 mg/kg/injection, schedule: Q04DX003 (sc), vehicle: steriod suspending solution) is 86 % of control and the T/C (dose: 400.0 mg/kg/injection, schedule: Q04DX003 (sc), vehicle: steriod suspending solution) was 95 % of control.
Take `O=NN(CCCl)C(=O)NC1CCC(=O)NC1=O` (stereo not given): the T/C was 272 % of control (dose: 3.13 mg/kg/injection, schedule: Q04DX003 (ip), vehicle: saline with Tween-80); 230 % of control (dose: 4.0 mg/kg/injection, schedule: Q04DX003 (ip), vehicle: saline with Tween-80); 230 % of control (dose: 6.0 mg/kg/injection, schedule: Q04DX003 (ip), vehicle: saline with Tween-80); 272 % of control (dose: 6.25 mg/kg/injection, schedule: Q04DX003 (ip), vehicle: saline with Tween-80); 250 % of control (dose: 9.0 mg/kg/injection, schedule: Q04DX003 (ip), vehicle: gum acacia); 230 % of control (dose: 9.0 mg/kg/injection, schedule: Q04DX003 (ip), vehicle: saline with Tween-80). The T/C is, setting by setting: (dose: 12.5 mg/kg/injection, schedule: Q04DX003 (ip), vehicle: saline with Tween-80) 104 % of control; (dose: 20.0 mg/kg/injection, schedule: Q04DX003 (ip), vehicle: gum acacia) 112 % of control.
For `C[NH-].C[NH-].[Br][Pt+2][Br]`, the T/C reads like this: (dose: 6.0 mg/kg/injection, schedule: Q04DX003 (ip), vehicle: other) 170 % of control; (dose: 12.0 mg/kg/injection, schedule: Q04DX003 (ip), vehicle: other) 208 % of control; (dose: 12.5 mg/kg/injection, schedule: Q04DX003 (ip), vehicle: other) 212 % of control.
Take `CCc1nc2nc(C)cc(C)n2n1`: the T/C was 91 % of control (dose: 12.5 mg/kg/injection, schedule: Q01DX009 (ip), vehicle: saline); 89 % of control under setting [11]; 97 % of control and 120 % of control under setting [12]; 86 % of control and 91 % of control under setting [1]; 104 % of control (dose: 200.0 mg/kg/injection, schedule: Q01DX009 (ip), vehicle: saline).
As to `CCS(=O)(=O)OC1CCCCCCC1NC(=O)c1ccccc1` (stereo not given), the T/C reads like this: (dose: 25.0 mg/kg/injection, schedule: Q01DX009 (ip), vehicle: saline with Tween-80) 95 % of control; under setting [3], 109 % of control; under setting [4], 104 % of control.
For `NN(C(=O)c1ccccc1)C1CCCCC1`, the T/C (dose: 25.0 mg/kg/injection, schedule: Q01DX009 (ip), vehicle: alcohol) was 91 % of control; the T/C (dose: 50.0 mg/kg/injection, schedule: Q01DX009 (ip), vehicle: alcohol) was 100 % of control; the T/C (dose: 75.0 mg/kg/injection, schedule: Q04DX003 (ip), vehicle: Klucel (hydroxypropylcellulose) (HPC)) is 110 % of control; the T/C (dose: 115.0 mg/kg/injection, schedule: Q04DX003 (ip), vehicle: Klucel (hydroxypropylcellulose) (HPC)) is 120 % of control; the T/C (dose: 170.0 mg/kg/injection, schedule: Q04DX003 (ip), vehicle: Klucel (hydroxypropylcellulose) (HPC)) was 100 % of control; the T/C (dose: 255.0 mg/kg/injection, schedule: Q04DX003 (ip), vehicle: Klucel (hydroxypropylcellulose) (HPC)) was 110 % of control. Also, the T/C (dose: 385.0 mg/kg/injection, schedule: Q04DX003 (ip), vehicle: Klucel (hydroxypropylcellulose) (HPC)) is 100 % of control.
As to `CC(=O)c1cccc(N)c1`, the T/C by setting is: under setting [6], 104 % of control; (dose: 100.0 mg/kg/injection, schedule: Q01DX009 (ip), vehicle: Klucel (hydroxypropylcellulose) (HPC)) 100 % of control; under setting [13], 100 % of control; under setting [7], 100 % of control; (dose: 200.0 mg/kg/injection, schedule: Q01DX009 (ip), vehicle: Klucel (hydroxypropylcellulose) (HPC)) 91 % of control; under setting [14], 109 % of control. In addition, the T/C by setting is: under setting [8], 113 % of control; (dose: 400.0 mg/kg/injection, schedule: Q01DX009 (ip), vehicle: Klucel (hydroxypropylcellulose) (HPC)) 95 % of control; under setting [15], 109 % of control.
As for `O=C(NCCBr)Nc1ccccc1C(F)(F)F`, the T/C runs as follows: under setting [13], 95 % of control; under setting [14], 109 % of control; under setting [15], 109 % of control.
In the case of `COc1cc2c(cc1OC)C1CCN3CCCC3N1CC2` (stereo not given), the T/C under setting [6] was 109 % of control and the T/C under setting [7] is 90 % of control.
Take `CC(C)Oc1ccc(Nc2ccccc2)cc1`: the T/C runs as follows: under setting [6], 100 % of control; under setting [7], 100 % of control; under setting [8], 91 % of control.
